According to patent US20220088146A1, “Melanocortin Receptor-Specific Peptide Formulations and Methods for Gastrointestinal Tract-Specific Delivery” (Palatin Technologies, Inc., priority 2018, published 2022):
Numbered stars: 1 amine (or outer) side, 2 acyl side, 3 side chain; on linkers, the order of the positions; unused ones are H or OH. Bridge positions count the residues as written; N and C are the ends. Square brackets hold non-standard residues; d marks the D form. Peptide text beside a SMILES is read from it. dPhe(3-Cl) = N[C@H](Cc1cccc(Cl)c1)C(=O)O; dPhe(4-Cl) = N[C@H](Cc1ccc(Cl)cc1)C(=O)O; dPhe(4-F) = N[C@H](Cc1ccc(F)cc1)C(=O)O; dPhe(2-F) = N[C@H](Cc1ccccc1F)C(=O)O; Suc = O=C(CCC(=O)[*:2])[*:1]; Nle = CCCC[C@H](N)C(=O)O; Orn = NCCC[C@H](N)C(=O)O; Dab = NCC[C@H](N)C(=O)O

biological target: hMC1r (Homo sapiens, UniProt Q01726); assay: Assay for agonist activity: cAMP accumulation in HBL melanoma cells; format: cell-based; set-up: endogenous in cells; host or cells: HBL human melanoma cells; details: HBL, compared to NDP-α-MSH as 100%, read-out: MC-1 Emax (average; cAMP HBL)
Sequence (Q01726 whole entry): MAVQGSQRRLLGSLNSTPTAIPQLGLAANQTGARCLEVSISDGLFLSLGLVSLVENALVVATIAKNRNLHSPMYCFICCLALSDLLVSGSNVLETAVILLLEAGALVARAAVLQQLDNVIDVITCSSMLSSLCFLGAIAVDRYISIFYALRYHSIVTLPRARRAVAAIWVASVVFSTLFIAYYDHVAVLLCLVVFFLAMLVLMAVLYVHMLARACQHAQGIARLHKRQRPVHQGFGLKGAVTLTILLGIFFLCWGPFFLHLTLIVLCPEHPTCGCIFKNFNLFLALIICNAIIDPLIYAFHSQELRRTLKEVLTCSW
Protocol: 8.2 Assay for Agonist Activity.
Confluent HBL cells that express hMC1r or HEK-293 cells that express recombinant hMC4r were detached from culture plates by incubation in enzyme-free cell dissociation buffer. Dispersed cells were suspended in Earle's Balanced Salt Solution containing 10 mM HEPES (pH 7.5), 1 mM MgCl2, 1 mM glutamine, 0.5% albumin and 0.3 mM 3-isobutyl-1-methyl-xanthine (IBMX), a phosphodiesterase inhibitor. The cells were plated in 96-well plates at a density of 0.4×10^5 cells per well for HBL cells and 0.5×10^5 cells per well for HEK-293 cells and pre-incubated for 10 minutes. Cells were exposed for 15 minutes at 37° C. to peptides of the present invention dissolved in DMSO (final DMSO concentration of 1%) at a concentration range of 0.05-5000 nM in a total assay volume of 200 μL. […] Data analysis was performed by nonlinear regression analysis with Graph-Pad Prism® software.
All results are expressed in nM except for Emax values, which are percentage values. Peptides with the captioned primary sequence were synthesized and purified as described in Section 7 above, with the resulting peptide having the structure depicted.

SMILES | Emax
CCCC[C@H](NC(C)=O)C(=O)N[C@H]1CCC(=O)NCC[C@@H](C(=O)N[C@@H](Cc2c[nH]c3ccccc23)C(N)=O)NC(=O)[C@H](CCCNC(=N)N)NC(=O)[C@@H](Cc2ccccc2)NC(=O)[C@H](CCN)NC1=O [Example 9.41, Ac-Nle-cyclo(Glu-Dab-D-Phe-Arg-Dab)-Trp-NH2] | 108%
CCCC[C@H](NC(C)=O)C(=O)N[C@H]1CCC(=O)NCC[C@@H](C(=O)N[C@H](Cc2cccc3ccccc23)C(N)=O)NC(=O)[C@H](CCCNC(=N)N)NC(=O)[C@@H](Cc2ccccc2)NC(=O)[C@H](Cc2c[nH]cn2)NC1=O [Example 9.9, Ac-Nle-cyclo(Glu-His-D-Phe-Arg-Dab)-D-Nal 1-NH2] | 73%
CCCC[C@H](NC(C)=O)C(=O)N[C@H]1CCC(=O)NCC[C@@H](C(=O)N[C@@H](Cc2c[nH]c3ccccc23)C(N)=O)NC(=O)[C@H](CCCNC(=N)N)NC(=O)[C@@H](Cc2ccccc2)NC(=O)[C@H](Cc2c[nH]cn2)NC1=O [Example 9.2, Ac-Nle-cyclo(Glu-His-D-Phe-Arg-Dab)-Trp-NH2] | 95%
CCCC[C@H](NC(C)=O)C(=O)N[C@H]1CCC(=O)NCC[C@@H](C(N)=O)NC(=O)[C@H](CCCNC(=N)N)NC(=O)[C@@H](Cc2ccccc2)NC(=O)[C@@H]2CCCN2C1=O [Example 9.65, Ac-Nle-cyclo(Glu-Pro-D-Phe-Arg-Dab)-NH2] | 102%
CCCC[C@H](NC(C)=O)C(=O)N[C@H]1CCC(=O)NCC[C@@H](C(=O)N[C@@H](Cc2c[nH]c3ccccc23)C(N)=O)NC(=O)[C@H](CCCNC(=N)N)NC(=O)[C@@H](Cc2ccccc2)NC(=O)[C@H]2CCCN2C1=O [Example 9.66, Ac-Nle-cyclo(Glu-Pro-D-Phe-Arg-Dab)-Trp-NH2] | 97%
N=C(N)NCCC[C@@H]1NC(=O)[C@@H](Cc2ccccc2)NC(=O)[C@H](Cc2c[nH]cn2)NC(=O)[C@@H](NC(=O)CC2CCCCC2)CCC(=O)NCC[C@@H](C(=O)N[C@@H](Cc2c[nH]c3ccccc23)C(N)=O)NC1=O [Example 9.22, cyclohexyl acetyl-cyclo(Glu-His-D-Phe-Arg-Dab)-Trp-NH2] | 85%
CCCC[C@H](NC(C)=O)C(=O)N[C@H]1CCC(=O)NCC[C@@H](C(N)=O)NC(=O)[C@H](CCCNC(=N)N)NC(=O)[C@@H](Cc2cccc(Cl)c2)NC(=O)[C@H](CCCN)NC1=O [Example 9.58, Ac-Nle-cyclo(Glu-Orn-D-Phe(3-Cl)-Arg-Dab)-NH2] (Ac-[Nle]E[Orn][dPhe(3-Cl)]R[Dab]-NH2; lactam 2-6) | 86%
CCCC[C@H](NC(C)=O)C(=O)N[C@H]1CCC(=O)NCC[C@@H](C(N)=O)NC(=O)[C@H](CCCNC(=N)N)NC(=O)[C@@H](Cc2ccc(F)cc2)NC(=O)[C@H](CCCN)NC1=O [Example 9.61, Ac-Nle-cyclo(Glu-Orn-D-Phe(4-F)-Arg-Dab)-NH2] (Ac-[Nle]E[Orn][dPhe(4-F)]R[Dab]-NH2; lactam 2-6) | 102%
CCCC[C@H](NC(C)=O)C(=O)N[C@H]1CCC(=O)NCCC[C@@H](C(=O)N[C@@H](Cc2c[nH]c3ccccc23)C(N)=O)NC(=O)[C@H](CCCNC(=N)N)NC(=O)[C@@H](Cc2ccccc2)NC(=O)[C@H](Cc2c[nH]cn2)NC1=O [Example 9.6, Ac-Nle-cyclo(Glu-His-D-Phe-Arg-Orn)-Trp-NH2] | 91%
CCCC[C@H](NC(C)=O)C(=O)N[C@H]1CCC(=O)NCC[C@@H](C(=O)N[C@H](Cc2ccc3ccccc3c2)C(N)=O)NC(=O)[C@H](CCCNC(=N)N)NC(=O)[C@@H](Cc2ccccc2)NC(=O)[C@H](Cc2c[nH]cn2)NC1=O [Example 9.11, Ac-Nle-cyclo(Glu-His-D-Phe-Arg-Dab)-D-Nal 2-NH2] | 69%
CCCCCCC(=O)N[C@H]1CCC(=O)NCC[C@@H](C(=O)N[C@@H](Cc2c[nH]c3ccccc23)C(N)=O)NC(=O)[C@H](CCCNC(=N)N)NC(=O)[C@@H](Cc2ccccc2)NC(=O)[C@H](Cc2c[nH]cn2)NC1=O [Example 9.18, CH3—(CH2)5—C(═O)-cyclo(Glu-His-D-Phe-Arg-Dab)-Trp-NH2] | 87%
CCCC[C@H](NC(C)=O)C(=O)N[C@H]1CCC(=O)NCC[C@@H](C(N)=O)NC(=O)[C@H](CCCNC(=N)N)NC(=O)[C@@H](Cc2ccccc2)NC(=O)[C@H](Cc2c[nH]cn2)NC1=O [Example 9.32, Ac-Nle-cyclo(Glu-His-D-Phe-Arg-Dab)-NH2] | 85%
CCCC[C@H](NC(C)=O)C(=O)N[C@H]1CCC(=O)NCC[C@@H](C(N)=O)NC(=O)[C@H](CCCNC(=N)N)NC(=O)[C@@H](Cc2ccccc2F)NC(=O)[C@H](CCCN)NC1=O [Example 9.60, Ac-Nle-cyclo(Glu-Orn-D-Phe(2-F)-Arg-Dab)-NH2] (Ac-[Nle]E[Orn][dPhe(2-F)]R[Dab]-NH2; lactam 2-6) | 95%
CCCC[C@H](NC(C)=O)C(=O)N[C@H]1CCC(=O)NCC[C@@H](C(=O)N[C@@H](Cc2c[nH]c3ccccc23)C(N)=O)NC(=O)CNC(=O)[C@@H](Cc2ccccc2)NC(=O)[C@H](Cc2c[nH]cn2)NC1=O [Example 9.34, Ac-Nle-cyclo(Glu-His-D-Phe-Gly-Dab)-Trp-NH2] (Ac-[Nle]EH[dF]G[Dab]W-NH2; lactam 2-6) | 59%
CCCC[C@H](NC(C)=O)C(=O)N[C@H]1CCNC(=O)CCC(=O)NC[C@@H](C(=O)N[C@@H](Cc2c[nH]c3ccccc23)C(N)=O)NC(=O)[C@H](CCCNC(=N)N)NC(=O)[C@@H](Cc2ccccc2)NC(=O)[C@H](Cc2c[nH]cn2)NC1=O [Example 9.29, Ac-Nle-cyclo(Dab-His-D-Phe-Arg-Dap)-Trp-NH2] | 78%
N=C(N)NCCC[C@@H]1NC(=O)[C@@H](Cc2ccccc2)NC(=O)[C@H](Cc2c[nH]cn2)NC(=O)CCC(=O)NCC[C@@H](C(=O)N[C@@H](Cc2c[nH]c3ccccc23)C(N)=O)NC1=O [Example 9.14, cyclo(Suc-His-Phe-Arg-Dab)-Trp-NH2] (H[dF]R[Dab]W-NH2; linker N-4 via Suc) | 80%
CCCC[C@H](NC(C)=O)C(=O)N[C@H]1CCC(=O)NCC[C@@H](C(N)=O)NC(=O)[C@H](CCCNC(=N)N)NC(=O)[C@@H](Cc2ccc(Cl)cc2)NC(=O)[C@H](CCCN)NC1=O [Example 9.59, Ac-Nle-cyclo(Glu-Orn-D-Phe(4-Cl)-Arg-Dab)-NH2] (Ac-[Nle]E[Orn][dPhe(4-Cl)]R[Dab]-NH2; lactam 2-6) | 100%
CCCC[C@H](NC(C)=O)C(=O)N[C@H]1CCC(=O)NCC[C@@H](C(=O)N[C@@H](Cc2c[nH]c3ccccc23)C(N)=O)NC(=O)[C@H](CCCNC(=N)N)NC(=O)[C@@H](Cc2ccccc2)NC(=O)[C@H](C)NC1=O [Example 9.36, Ac-Nle-cyclo(Glu-Ala-D-Phe-Arg-Dab)-Trp-NH2] | 86%
N=C(N)NCCC[C@@H]1NC(=O)[C@@H](Cc2ccccc2)NC(=O)[C@H](Cc2c[nH]cn2)NC(=O)[C@@H](NC(=O)C2CCCCC2)CCC(=O)NCC[C@@H](C(=O)N[C@@H](Cc2c[nH]c3ccccc23)C(N)=O)NC1=O [Example 9.20, cyclo-hexanoyl-cyclo(Glu-His-D-Phe-Arg-Dab)-Trp-NH2] | 79%
CCCC[C@H](NC(C)=O)C(=O)N[C@H]1CNC(=O)CCC(=O)NC[C@@H](C(=O)N[C@@H](Cc2c[nH]c3ccccc23)C(N)=O)NC(=O)[C@H](CCCNC(=N)N)NC(=O)[C@@H](Cc2ccccc2)NC(=O)[C@H](Cc2c[nH]cn2)NC1=O [Example 9.28, Ac-Nle-cyclo(Dap-His-D-Phe-Arg-Dap)-Trp-NH2] | 70%
CCCCCC(=O)N[C@H]1CCC(=O)NCC[C@@H](C(=O)N[C@@H](Cc2c[nH]c3ccccc23)C(N)=O)NC(=O)[C@H](CCCNC(=N)N)NC(=O)[C@@H](Cc2ccccc2)NC(=O)[C@H](Cc2c[nH]cn2)NC1=O [Example 9.17, CH3—(CH2)4—C(═O)-cyclo(Glu-His-D-Phe-Arg-Dab)-Trp-NH2] | 90%
CCCC[C@H](NC(C)=O)C(=O)N[C@H]1CCC(=O)NCC[C@@H](C(=O)N[C@H](Cc2c[nH]c3ccccc23)C(N)=O)NC(=O)[C@H](CCCNC(=N)N)NC(=O)[C@@H](Cc2ccccc2)NC(=O)[C@H](Cc2c[nH]cn2)NC1=O [Example 9.7, Ac-Nle-cyclo(Glu-His-D-Phe-Arg-Dab)-D-Trp-NH2] | 93%
CCCC[C@H](NC(C)=O)C(=O)N[C@H]1CCC(=O)NCC[C@@H](C(=O)N[C@@H](Cc2c[nH]c3ccccc23)C(N)=O)NC(=O)[C@H](CCCNC(=N)N)NC(=O)[C@@H](Cc2ccccc2)NC(=O)[C@H](CCCN)NC1=O [Example 9.42, Ac-Nle-cyclo(Glu-Orn-D-Phe-Arg-Dab)-Trp-NH2] | 109%
CCCC[C@H](NC(C)=O)C(=O)N[C@H]1CCC(=O)NCC[C@@H](C(=O)N[C@@H](Cc2ccc3ccccc3c2)C(N)=O)NC(=O)[C@H](CCCNC(=N)N)NC(=O)[C@@H](Cc2ccccc2)NC(=O)[C@H](Cc2c[nH]cn2)NC1=O [Example 9.10, Ac-Nle-cyclo(Glu-His-D-Phe-Arg-Dab)-Nal 2-NH2] | 83%
N=C(N)NCCC[C@@H]1NC(=O)[C@@H](Cc2ccccc2)NC(=O)[C@H](Cc2c[nH]cn2)NC(=O)[C@@H](NC(=O)Cc2ccccc2)CCC(=O)NCC[C@@H](C(=O)N[C@@H](Cc2c[nH]c3ccccc23)C(N)=O)NC1=O [Example 9.23, phenyl acetyl-cyclo(Glu-His-D-Phe-Arg-Dab)-Trp-NH2] | 82%
